Data taken from patent publication US10865406B2, “ALS inhibitor herbicide tolerant Beta vulgaris mutants” (priority 2010, dated 2020).

Experiments:
[1] = tested on: SB574TL sugar beet cell colony; test: Growth of selected mutant cell colony (clone SB574TL) on foramsulfuron medium; assay type: cell-based, Beta vulgaris; settings: 3×10^−7 M and even 3×10^−6 M foramsulfuron
Excerpt: When this callus type was exposed to 10^−9 M of the sulfonylurea foramsulfuron (CAS RN 173159-57-4), the cells survived, but produced less than 50% of the biomass of their siblings on medium devoid of the inhibitor. On medium containing 3×10^−8 M foramsulfuron no growth was detectable. For large scale mutant selection experiments 10^−7 M foramsulfuron was chosen. Surviving and growing cell colonies were numbered and transferred after 4-6 weeks onto fresh medium containing 3×10^−7 M of the inhibitor. One of these cell colonies was able to grow not only at this concentration of the inhibitor but even in presence of 3×10^−6 M of foramsulfuron. From this clone (SB574TL), shoots were regenerated in presence of the ALS-inhibitor herbicide and then the shoots were transferred to MS medium containing 0.05 mg/l Naphthalene acetic acid (NAA).
When this callus type was exposed to 10^−9 M of the ALS inhibitor herbicide foramsulfuron (belonging to the sulfonylurea subclass, see above), the cells survived, but produced less than 50% of the biomass of their siblings on medium devoid of the inhibitor. On medium containing 3×10^−8 M foramsulfuron no growth was detectable. For large scale mutant selection experiments, 10^−7 M foramsulfuron was chosen. Surviving and growing cell colonies were numbered and transferred after 4-6 weeks onto fresh medium containing 3×10^−7 M of the inhibitor. […]

[2] = tested on: ALS in leaf extracts of wild type sugar beets and SB574TL; test: ALS enzyme activity measurements from plant leaf extracts; assay type: biochemical, Beta vulgaris
Excerpt: When plants are used, ALS activity is preferably determined in cell extracts or leaf extracts of wild type and B. vulgaris cell extracts or leaf extracts of the obtained mutant in the presence of various concentrations of ALS-inhibitor herbicides, preferably sulfonylurea herbicides or sulfonylamino-carbonyltriazolinone herbicides, more preferably in the presence of various concentrations of the ALS inhibitor herbicide “foramsulfuron”. ALS is thus preferably extracted from sugar beet leaves or sugar beet tissue cultures as described by Ray (1984) in Plant Physiol 75:827-831.
ALS was extracted from sugar beet leaves or sugar beet tissue cultures as described by Ray (1984), Plant Physiol 75:827-831.
ALS activity was determined in leaf extracts of wild type and sugar beets and leaf extracts of the obtained SB574TL in presence of various concentrations of foramsulfuron as described in Example 4.
In total, the mutant enzyme was at least 2000 times less sensitive against the ALS inhibitor foramsulfuron than the wild type enzyme.

[3] = tested on: sugar beet calli (diploid genotype 7T9044); test: cells; assay type: cell-based, Beta vulgaris
Protocol: Sugar beet cell cultures were initiated from seedlings of a diploid sugar beet genotype 7T9044 (as, for example, described by Alexander Dovzhenko, PhD Thesis, Title: “Towards plastid transformation in rapeseed (Brassica napus L.) and sugarbeet (Beta vulgaris L.)”, Ludwig-Maximilians-Universität München, Germany, 2001). Sugar beet seeds were immersed for 60 seconds in 70% ethanol, then rinsed twice in sterile water with 0.01% detergent and then incubated for 1-4 hours in 1% NaOCl bleach. Thereafter the seeds were washed 3 times with sterile H2O and the seeds were stored in sterile water overnight at 4° C. The embryos were then isolated using forceps and scalpel.
The freshly prepared embryos were immersed in 0.5% NaOCl for 30 min and then washed 3 times in sterile water. After the last washing step they were placed on hormone free MS agar medium (Murashige and Skoog (1962), Physiol. Plantarum, 15, 473-497). Those embryos which developed into sterile seedlings were used for the initiation of regenerable sugar beet cell cultures.
Cotyledons as well as hypocotyls were cut into 2-5 mm long segments and then cultivated on agar (0.8%) solidified MS medium containing either 1 mg/l Benzylaminopurine (BAP) or 0.25 mg/l Thidiazuron (TDZ). 4 weeks later the developing shoot cultures were transferred onto fresh agar medium of the same composition and then sub-cultured in monthly intervals. […]

[4] = tested on: wild type sugar beet plants; test: Herbicide treatment of regenerated plants from wild type cell cultures (greenhouse); assay type: in vivo, Beta vulgaris; settings: lowest doses tested (range 7-70 g a.i./ha foramsulfuron, 1-10 g a.i./ha iodosulfuron-methyl-sodium, mixtures 7:1)
Excerpt: (§1) Within 4-12 weeks the shoots formed roots and then they were transferred into sterile plant containers filled with wet, sterilized perlite, watered with half strength MS inorganic ingredients. Alternatively the plantlets were transferred directly from the agar solidified medium in a perlite containing soil mixture in the greenhouse. During the first 10-15 days after transfer into soil containing substrate the plants were kept in an environment with high air humidity. During and after they were weaned to normal greenhouse air humidity regimes the plants were kept in the greenhouse under artificial light (12 h) at 20+−3° C./15+−2° C. day/night temperatures.
(§2) 3-5 weeks later, the regenerated plants from the above obtained foramsulfuron tolerant cell culture (SB574TL) as well as from the wild type cell cultures were treated with foramsulfuron, iodosulfuron-methyl-sodium (CAS RN […]) and a mixture of both active ingredients. The herbicide doses tested were equivalent to 7-70 g a.i./ha for foramsulfuron and 1-10 g a.i./ha for iodosulfuron-methyl-sodium.

[5] = tested on: Beta vulgaris wild-type and W574L-mutant (SB574TL) ALS; test: ALS enzyme activity measurements, E. coli expressed enzyme; assay type: biochemical; settings: crude protein extract, from pI50-values
Protocol: The coding sequence of a Beta vulgaris wild-type and a mutant B. vulgaris plant is cloned into, for example, Novagen pET-32a(+) vectors and the vectors are transformed into, for example, Escherichia coli AD494 according to the instructions of the manufacturer. Bacteria are preferably grown at 37° C. in medium under selection pressure such as in LB-medium containing 100 mg/l carbenicillin and 25 mg/l kanamycin, are induced with, for example, 1 mM isopropyl-β-D-thiogalactopyranoside at an OD600 of preferably about 0.6, cultivated for about 16 hours at preferably 18° C. and harvested by centrifugation. Bacterial pellets are resuspended in 100 mM sodium phosphate buffer pH 7.0 containing 0.1 mM thiamine-pyrophosphate, 1 mM MgCl2, and 1 μM FAD at a concentration of 1 gram wet weight per 25 ml of buffer and disrupted by sonification. The crude protein extract obtained after centrifugation is used for ALS activity measurements.
ALS assays are then carried out in, for example, 96-well microtiter plates using a modification of the procedure described by Ray (1984), Plant Physiol., 75, 827-831. The reaction mixture contains preferably 20 mM potassium phosphate buffer pH 7.0, […], 0.45 mM thiamine-pyrophosphate, 0.45 mM MgCl2, 9 μM FAD, ALS enzyme and various concentrations of ALS inhibitors in a final volume of about 90 μl. […]

[6] = tested on: regenerated plants from SB574TL cell culture; test: Herbicide treatment of regenerated plants from the foramsulfuron tolerant cell culture (greenhouse); assay type: in vivo, Beta vulgaris; settings: highest doses tested (range 7-70 g a.i./ha foramsulfuron, 1-10 g a.i./ha iodosulfuron-methyl-sodium, mixtures 7:1)
Excerpt: as §1, §2

SMILES | growth of mutant cell colony [1] | sensitivity of mutant enzyme relative to wild type enzyme (times less sensitive) [2] | cell survival of callus ([3]; 10^−9 M foramsulfuron in medium) | viability at 0.001 µM ([3]; Beta vulgaris, read-out: biomass relative to siblings on medium devoid of the inhibitor) | effect on wild type plants [4] | sensitivity of mutant enzyme relative to wild type enzyme (times less sensitive) [5] | tolerance of regenerated plants to herbicide [6]
COc1cc(OC)nc(NC(=O)NS(=O)(=O)c2cc(NC=O)ccc2C(=O)N(C)C)n1 [foramsulfuron] | able to grow | at least 2000 times | survived | < 50% | killed | at least 2000 times | tolerated even the highest herbicide doses
COC(=O)c1ccc(I)cc1S(=O)(=O)[N-]C(=O)Nc1nc(C)nc(OC)n1.[Na+] [iodosulfuron-methyl-sodium] | – | – | – | – | killed | – | tolerated even the highest herbicide doses
